Literature values as cited in patent US20230287038A1, “PURIFIED SAPONINS AND CHROMATOGRAPHIC PROCESS FOR PURIFICATION OF SAME” (ACCESS TO ADVANCED HEALTH INSTITUTE, priority 2020, published 2023).

Experiments:
[1] = reversed-phase chromatography fractions of saponin extract
[2] = system: antigens bovine serum albumin and cytochrome b5; conditions: mice
[3] = system: unconjugated bacterial polysaccharides; conditions: including unconjugated bacterial polysaccharides
[4] = aqueous solution

| Substance | adjuvant activity [1] | antibody response to bovine serum albumin and cytochrome b5 [2] | antibody response to T-independent antigens [3] | pH at which hydrolysis of the fatty acyl ester bond (de-acylation) is minimized [4] |
| --- | --- | --- | --- | --- |
| QS-17 | identified with adjuvant activity | stimulate potent antibody responses |  |  |
| QS-18 | identified with adjuvant activity | stimulate potent antibody responses |  |  |
| QS-21 | identified with adjuvant activity | stimulate potent antibody responses | enhance antibody responses | ~5.5 |
